Test results: BindingDB's records for doi:10.1002/1439-7633(20010601)2 (Universit&Eacute, 2001)

Target: Acetylcholinesterase (Torpedo marmorata, UniProt P07692)
Test: Enzyme Assay
Conditions: pH 4; 25 °C
Protocol: The inhibitory activity of the equilibrated mixtures was determined. The activity of AChE was monitored by following the linear change in absorbance at 412 nm over 30s at 25C.

Sequence of Acetylcholinesterase (P07692 whole entry): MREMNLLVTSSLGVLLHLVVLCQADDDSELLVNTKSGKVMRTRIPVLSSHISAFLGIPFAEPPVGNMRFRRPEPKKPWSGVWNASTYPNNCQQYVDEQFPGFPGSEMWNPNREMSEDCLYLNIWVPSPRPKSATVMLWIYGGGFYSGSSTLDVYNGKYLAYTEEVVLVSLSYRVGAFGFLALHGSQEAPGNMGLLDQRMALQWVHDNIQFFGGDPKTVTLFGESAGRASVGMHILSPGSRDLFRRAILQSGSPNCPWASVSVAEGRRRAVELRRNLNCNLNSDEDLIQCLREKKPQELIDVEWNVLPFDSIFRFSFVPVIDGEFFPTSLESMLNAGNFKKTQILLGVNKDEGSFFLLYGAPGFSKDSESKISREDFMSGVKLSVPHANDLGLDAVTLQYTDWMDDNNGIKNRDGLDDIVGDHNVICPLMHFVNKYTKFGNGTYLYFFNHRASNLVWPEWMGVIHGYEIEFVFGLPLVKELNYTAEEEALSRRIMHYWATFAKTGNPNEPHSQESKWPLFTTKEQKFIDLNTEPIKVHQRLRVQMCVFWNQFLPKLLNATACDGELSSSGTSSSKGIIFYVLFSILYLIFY

Structure (SMILES) | IC50 [nM]
O=C(C[n+]1ccccc1)N/N=C/c1ccc(/C=N/NC(=O)C[n+]2ccccc2)cc1 [Terephthalaldehyde, 4-I-4] | 2.3
c1cc[n+](CCCCCCCCCCCC[n+]2ccccc2)cc1 [1,12-Bis(pyridinium)dodecane] | 16
C[N+](C)(C)CCCCCCCCCCCC[N+](C)(C)C [N1,N1,N1,N12,N12,N12-hexamethyldodecane-1,12-diaminium bromide] | 93.2
c1cc[n+](CCCCCCCCCC[n+]2ccccc2)cc1 [1,10-di(1-pyridiniumyl)decane; diiodide] | 25.8
